In patent US9186360B2, “Treatment of respiratory disorders using TRPA1 antagonists” (GLENMARK PHARMACEUTICALS S.A., priority 2011, dated 2015) one finds IC50 data, which are given here for 24 molecules.

Some results are limits rather than exact numbers.

Format in all cases: cell-based
In assay [1] the target is human TRPM8 (Homo sapiens (Human), UniProt Q7Z2W7). Nature of the assay: Radiometric calcium selectivity assay, CHO cells expressing human TRPM8 (icilin). The conditions noted are these: read-out: IC50 values hTRPM8. How it is done: (§1) For selectivity screening, CHO cells stably expressing human TRPV1, human TRPV3, human TRPV4, or human TRPM8 were generated in-house and maintained in DMEM F-12 supplemented with 10% FBS and G418. All the cell types were cultured at 37° C. in humidified air containing 5% CO2. Radiometric calcium assay was performed as described above with some minor modifications. Assay was carried out in total volume of 200 μl at 30° C. (for TRPV1), 32° C. (for TRPV3) and 25° C. (for TRPV4 and TRPM8). Agonists used for selectivity screening of the different TRPs are: Capsaicin for TRPV1,2-aminoethoxydiphenyl borate for TRPV3, 4α-phorbol 12,13-didecanoate for TRPV4 and Icilin for TRPM8. After 2-5 minutes of agonist treatment, drug was washed and lysed in lysis buffer as mentioned above. Radioactivity in the lysate was measured in Packard Top count after addition of liquid scintillant.
human TRPM8, sequence (Q7Z2W7 whole entry): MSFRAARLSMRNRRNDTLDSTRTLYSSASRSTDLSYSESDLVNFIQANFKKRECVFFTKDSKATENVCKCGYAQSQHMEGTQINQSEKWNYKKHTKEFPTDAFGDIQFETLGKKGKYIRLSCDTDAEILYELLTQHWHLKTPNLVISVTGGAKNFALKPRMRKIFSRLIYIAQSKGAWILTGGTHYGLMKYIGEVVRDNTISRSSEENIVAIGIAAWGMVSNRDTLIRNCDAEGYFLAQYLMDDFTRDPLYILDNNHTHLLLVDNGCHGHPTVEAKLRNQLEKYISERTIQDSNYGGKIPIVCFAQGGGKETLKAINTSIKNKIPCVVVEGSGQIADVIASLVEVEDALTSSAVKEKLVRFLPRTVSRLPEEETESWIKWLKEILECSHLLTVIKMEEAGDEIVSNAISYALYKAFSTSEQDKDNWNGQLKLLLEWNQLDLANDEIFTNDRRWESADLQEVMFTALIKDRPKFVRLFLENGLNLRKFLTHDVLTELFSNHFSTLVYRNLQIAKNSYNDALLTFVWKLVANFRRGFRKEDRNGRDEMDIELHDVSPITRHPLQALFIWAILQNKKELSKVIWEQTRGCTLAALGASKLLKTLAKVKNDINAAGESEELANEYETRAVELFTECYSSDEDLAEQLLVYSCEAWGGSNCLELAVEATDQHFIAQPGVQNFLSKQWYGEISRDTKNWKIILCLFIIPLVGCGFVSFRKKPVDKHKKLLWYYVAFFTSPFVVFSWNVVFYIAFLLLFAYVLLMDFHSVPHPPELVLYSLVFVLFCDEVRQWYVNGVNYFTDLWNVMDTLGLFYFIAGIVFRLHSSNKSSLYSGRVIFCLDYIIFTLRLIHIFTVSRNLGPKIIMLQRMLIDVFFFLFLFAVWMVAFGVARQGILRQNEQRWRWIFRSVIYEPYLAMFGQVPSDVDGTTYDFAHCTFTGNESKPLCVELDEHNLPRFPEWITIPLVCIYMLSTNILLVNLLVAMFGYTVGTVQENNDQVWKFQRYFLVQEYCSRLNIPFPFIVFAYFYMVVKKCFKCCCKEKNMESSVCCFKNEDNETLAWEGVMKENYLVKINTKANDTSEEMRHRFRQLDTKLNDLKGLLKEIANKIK

Assay [2] deals with human TRPV1 (Homo sapiens (Human), UniProt Q8NER1). Nature of the assay: Radiometric calcium selectivity assay, CHO cells expressing human TRPV1 (capsaicin). The following applies: read-out: IC50 values hTRPV1. The method, then:
as §1

The target of assay [3] is human TRPV4 (Homo sapiens (Human), UniProt Q9HBA0). Briefly: Radiometric calcium selectivity assay, CHO cells expressing human TRPV4 (4α-phorbol 12,13-didecanoate). The following applies: read-out: IC50 values hTRPV4. How it is done:
as §1

For assay [4], the target named is human TRPV3 (Homo sapiens (Human), UniProt Q8NET8). Briefly: Radiometric calcium selectivity assay, CHO cells expressing human TRPV3 (2-aminoethoxydiphenyl borate). The following applies: read-out: IC50 values hTRPV3. How it is done:
as §1

In assay [5] the target is human TRPA1 (Homo sapiens (Human), UniProt O75762). Nature of the assay: 45Calcium uptake assay, AITC induced, human TRPA1 expressing CHO cells. The conditions noted are these: AITC 30 micromolar, read-out: IC50 values hTRPA1. How it is done:
As contemplated herein, the IC50 value is measured by the following method. The inhibition of TRPA1 receptor activation is measured as inhibition of allylisothiocyanate (AITC) induced cellular uptake of radioactive calcium. Test solution of test compound is prepared in a suitable solvent using appropriate method. Human TRPA1 expressing CHO cells are grown in suitable medium. Cells are treated with test compounds followed by addition of AITC. Cells are washed and lysed. Radioactivity in the lysate is measured in Packard Top count after addition of liquid scintillant. The concentration response curves for compounds are plotted as a % of maximal response obtained in the absence of test antagonist, and the IC50 values are calculated from such concentration response curve by nonlinear regression analysis using GraphPad PRISM software.
The illustrative TRPA1 antagonists of the present invention were screened for TRPA1 activity according to a modified procedure described in Tóth, A. et al., Life Sciences 2003, 73, 487-498. The screening of the compounds can be carried out by other methods and procedures known to persons skilled in the art.
Screening for TRPA1 Antagonist Using the 45Calcium Uptake Assay:
The inhibition of TRPA1 receptor activation was measured as inhibition of allylisothiocyanate (AITC) induced cellular uptake of radioactive calcium. Test compounds were dissolved in DMSO to prepare 10 mM stock solution and then diluted using plain medium with 0.1% BSA and 1.8 mM CaCl2 to get desired concentration. Final concentration of DMSO in the reaction was 0.5% (v/v). Human TRPA1 expressing CHO cells were grown in F-12 DMEM medium with 10% FBS, 1% penicillin-streptomycin solution, and 400 μg/ml of G-418. Cells were seeded 24 h prior to the assay in 96 well plates so as to get ˜50,000 cells per well on the day of experiment. Cells were treated with test compounds for 10 min followed by addition of AITC at a final concentration of 30 micromolar and 5 μCi/ml 45Ca+2 for 3 min at 25° C. Cells were washed and lysed using buffer containing 1% Triton X-100, 0.1% deoxycholate and 0.1% SDS. Radioactivity in the lysate was measured in Packard Top count after addition of liquid scintillant.
Concentration response curves were plotted as a % of maximal response obtained in the absence of test antagonist. IC50 value was calculated from concentration response curve by nonlinear regression analysis using GraphPad PRISM software.

human TRPV1, sequence (Q8NER1 whole entry): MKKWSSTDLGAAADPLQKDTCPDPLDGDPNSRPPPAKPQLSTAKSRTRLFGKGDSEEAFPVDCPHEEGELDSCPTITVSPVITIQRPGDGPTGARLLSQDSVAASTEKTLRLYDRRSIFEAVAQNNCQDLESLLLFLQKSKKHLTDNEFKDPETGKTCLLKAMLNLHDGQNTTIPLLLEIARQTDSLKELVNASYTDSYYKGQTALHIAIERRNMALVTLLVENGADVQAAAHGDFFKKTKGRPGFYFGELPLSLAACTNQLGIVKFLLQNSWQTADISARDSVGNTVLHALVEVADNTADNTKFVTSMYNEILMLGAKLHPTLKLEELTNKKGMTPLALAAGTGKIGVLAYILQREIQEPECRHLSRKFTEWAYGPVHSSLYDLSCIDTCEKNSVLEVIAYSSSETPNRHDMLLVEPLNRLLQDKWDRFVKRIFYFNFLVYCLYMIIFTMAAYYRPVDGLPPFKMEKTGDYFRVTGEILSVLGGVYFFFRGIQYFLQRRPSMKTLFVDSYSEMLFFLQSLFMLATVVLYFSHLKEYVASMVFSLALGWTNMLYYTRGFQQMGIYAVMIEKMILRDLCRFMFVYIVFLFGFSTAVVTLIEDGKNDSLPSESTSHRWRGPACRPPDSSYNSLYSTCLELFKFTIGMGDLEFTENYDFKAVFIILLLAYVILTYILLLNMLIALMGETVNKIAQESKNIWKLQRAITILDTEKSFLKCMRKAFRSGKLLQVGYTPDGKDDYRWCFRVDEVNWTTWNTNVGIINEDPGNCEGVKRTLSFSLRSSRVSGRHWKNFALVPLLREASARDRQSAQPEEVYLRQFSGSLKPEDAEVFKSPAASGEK
human TRPV3, sequence (Q8NET8 whole entry): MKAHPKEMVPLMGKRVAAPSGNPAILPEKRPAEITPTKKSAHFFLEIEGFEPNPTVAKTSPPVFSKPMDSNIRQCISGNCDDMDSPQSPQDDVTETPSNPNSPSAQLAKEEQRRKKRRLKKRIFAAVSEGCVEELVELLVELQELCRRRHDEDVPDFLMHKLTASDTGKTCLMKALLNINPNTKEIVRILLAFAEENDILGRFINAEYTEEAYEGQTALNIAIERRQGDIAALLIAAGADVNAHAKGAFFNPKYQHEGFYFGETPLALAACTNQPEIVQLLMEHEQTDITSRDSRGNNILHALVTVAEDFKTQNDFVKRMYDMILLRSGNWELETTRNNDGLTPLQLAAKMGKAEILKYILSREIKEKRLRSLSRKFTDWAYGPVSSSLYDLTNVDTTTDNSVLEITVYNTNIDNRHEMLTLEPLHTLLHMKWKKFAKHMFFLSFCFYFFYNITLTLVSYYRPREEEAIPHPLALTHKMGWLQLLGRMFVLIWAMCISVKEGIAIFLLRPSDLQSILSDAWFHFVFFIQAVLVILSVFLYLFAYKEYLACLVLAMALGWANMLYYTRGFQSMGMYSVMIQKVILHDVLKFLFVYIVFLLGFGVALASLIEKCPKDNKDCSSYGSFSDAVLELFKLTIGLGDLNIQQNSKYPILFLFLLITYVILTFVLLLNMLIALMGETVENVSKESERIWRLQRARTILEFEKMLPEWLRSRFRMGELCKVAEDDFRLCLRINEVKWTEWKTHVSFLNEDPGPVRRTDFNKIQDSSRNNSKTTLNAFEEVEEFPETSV
human TRPV4, sequence (Q9HBA0 whole entry): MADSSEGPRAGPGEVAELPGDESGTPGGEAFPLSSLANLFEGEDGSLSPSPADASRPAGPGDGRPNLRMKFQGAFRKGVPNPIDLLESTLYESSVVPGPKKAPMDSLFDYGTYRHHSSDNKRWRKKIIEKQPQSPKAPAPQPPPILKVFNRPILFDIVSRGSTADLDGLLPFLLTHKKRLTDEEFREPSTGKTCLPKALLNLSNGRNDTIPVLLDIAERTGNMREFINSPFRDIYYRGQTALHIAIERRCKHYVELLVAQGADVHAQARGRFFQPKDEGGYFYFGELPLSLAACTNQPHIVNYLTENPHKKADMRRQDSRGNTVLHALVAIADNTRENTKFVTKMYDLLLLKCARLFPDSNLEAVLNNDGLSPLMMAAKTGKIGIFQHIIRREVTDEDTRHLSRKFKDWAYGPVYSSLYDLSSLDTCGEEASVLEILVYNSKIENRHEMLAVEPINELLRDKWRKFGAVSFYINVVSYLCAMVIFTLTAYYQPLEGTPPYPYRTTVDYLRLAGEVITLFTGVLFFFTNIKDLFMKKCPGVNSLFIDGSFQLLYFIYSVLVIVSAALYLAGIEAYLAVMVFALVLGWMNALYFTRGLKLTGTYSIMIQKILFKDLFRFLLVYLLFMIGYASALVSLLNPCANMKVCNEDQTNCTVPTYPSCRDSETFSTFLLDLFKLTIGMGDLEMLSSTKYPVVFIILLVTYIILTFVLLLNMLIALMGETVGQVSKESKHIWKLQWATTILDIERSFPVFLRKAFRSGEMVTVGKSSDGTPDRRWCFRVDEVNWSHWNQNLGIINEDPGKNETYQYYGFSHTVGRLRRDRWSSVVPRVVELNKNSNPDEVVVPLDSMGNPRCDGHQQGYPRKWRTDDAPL
human TRPA1, sequence (O75762 whole entry): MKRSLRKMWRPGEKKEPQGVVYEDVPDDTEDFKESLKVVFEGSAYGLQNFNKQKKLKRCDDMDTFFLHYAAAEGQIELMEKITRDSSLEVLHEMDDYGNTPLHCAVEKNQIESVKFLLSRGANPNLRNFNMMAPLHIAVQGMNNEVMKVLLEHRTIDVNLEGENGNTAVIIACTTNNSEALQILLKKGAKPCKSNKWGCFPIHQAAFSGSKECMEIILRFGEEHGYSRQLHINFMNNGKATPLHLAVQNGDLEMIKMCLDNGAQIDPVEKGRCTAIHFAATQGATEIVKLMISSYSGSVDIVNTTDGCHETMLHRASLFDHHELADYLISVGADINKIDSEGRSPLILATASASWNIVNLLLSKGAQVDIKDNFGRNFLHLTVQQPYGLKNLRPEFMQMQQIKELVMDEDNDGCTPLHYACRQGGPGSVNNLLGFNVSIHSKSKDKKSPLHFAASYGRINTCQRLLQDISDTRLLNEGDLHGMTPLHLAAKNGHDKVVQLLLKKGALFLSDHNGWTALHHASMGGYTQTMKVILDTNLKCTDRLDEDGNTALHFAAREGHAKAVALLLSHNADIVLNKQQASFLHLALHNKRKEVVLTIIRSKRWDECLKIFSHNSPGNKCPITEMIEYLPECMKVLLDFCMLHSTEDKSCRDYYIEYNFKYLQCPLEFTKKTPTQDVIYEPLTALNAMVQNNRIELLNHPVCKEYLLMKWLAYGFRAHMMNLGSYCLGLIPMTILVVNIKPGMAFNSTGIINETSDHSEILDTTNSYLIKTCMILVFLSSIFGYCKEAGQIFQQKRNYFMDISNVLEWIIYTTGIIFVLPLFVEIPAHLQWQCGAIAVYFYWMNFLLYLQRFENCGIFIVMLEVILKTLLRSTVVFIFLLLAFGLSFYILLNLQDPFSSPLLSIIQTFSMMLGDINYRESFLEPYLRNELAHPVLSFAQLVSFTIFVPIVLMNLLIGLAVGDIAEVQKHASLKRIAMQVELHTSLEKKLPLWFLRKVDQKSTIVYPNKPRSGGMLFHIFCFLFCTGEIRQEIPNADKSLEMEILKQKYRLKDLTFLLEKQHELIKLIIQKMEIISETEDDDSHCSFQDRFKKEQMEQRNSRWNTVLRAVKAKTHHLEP

By IC50 is commonly meant the concentration at which inhibition is half-maximal. Turning to `Cc1sc2c(c1CC(=O)Nc1nc(-c3ccc(Cl)c(Cl)c3)cs1)c(=O)n(C)c(=O)n2C` [Compound 47], the IC50 was over 10000 nM in assay [1]; over 10000 nM in assay [2]; over 1000 nM in assay [3]; over 10000 nM in assay [4]; 33.6 nM in assay [5].

As for `CCc1sc2c(c1CC(=O)Nc1nc(-c3cc(F)c(OC(F)F)c(F)c3)cs1)c(=O)n(C)c(=O)n2C` [Compound 48], the IC50 in assay [1] was over 10000 nM; in assay [2], over 10000 nM; in assay [3], over 10000 nM; in assay [4] it was over 10000 nM; in assay [5] it was 18.1 nM.

For the molecule `CCc1sc2c(c1CC(=O)Nc1nc(-c3cc(F)c(OCC(F)(F)F)c(F)c3)cs1)c(=O)n(C)c(=O)n2C` [Compound 49], the IC50 in assay [1] was over 10000 nM; in assay [2] it was over 10000 nM; in assay [3] it was over 10000 nM; in assay [4], over 10000 nM; in assay [5], 3.98 nM.

As for `CCc1sc2c(c1CC(=O)Nc1nc(-c3ccc(C(F)(F)F)c(F)c3)cs1)c(=O)n(C)c(=O)n2C` [Compound 50], the IC50 is over 10000 nM in assay [1]; over 10000 nM in assay [2]; 8890 nM in assay [3]; over 1000 nM in assay [4]; 16.7 nM in assay [5].

On to `CC(C)COc1c(F)cc(-c2csc(NC(=O)Cc3coc4c3c(=O)n(C)c(=O)n4C)n2)cc1F` [Compound 53], for which the IC50 was over 10000 nM in assay [1]; over 10000 nM in assay [2]; over 1000 nM in assay [3]; over 10000 nM in assay [4]; 18.2 nM in assay [5].

Turning to `Cn1c(=O)c2c(CC(=O)Nc3nc(-c4ccc(C(F)(F)F)c(F)c4)cs3)coc2n(C)c1=O` [Compound 54], the IC50 was over 10000 nM in assay [1]; over 10000 nM in assay [2]; over 1000 nM in assay [3]; over 1000 nM in assay [4]; 17.7 nM in assay [5].

Turning to `Cn1c(=O)c2c(CC(=O)Nc3nc(-c4cc(F)cc(C(F)(F)F)c4)cs3)coc2n(C)c1=O` [Compound 55], the IC50 is over 10000 nM in assay [1]; over 10000 nM in assay [2]; over 1000 nM in assay [3]; over 1000 nM in assay [4]; 2.15 nM in assay [5].

As for `Cn1c(=O)c2c(CC(=O)Nc3nc(-c4cc(F)c(CCC(F)(F)F)c(F)c4)cs3)coc2n(C)c1=O` [Compound 56], the IC50 was over 10000 nM in assay [1]; over 10000 nM in assay [2]; over 1000 nM in assay [3]; over 10000 nM in assay [4]; 3.38 nM in assay [5].

Regarding `Cn1c(=O)c2c(CC(=O)Nc3nc(-c4cc(Cl)c(OCC(F)(F)F)c(Cl)c4)cs3)coc2n(C)c1=O` [Compound 57], the IC50 in assay [1] is over 10000 nM; in assay [2], over 10000 nM; in assay [3] it was over 1000 nM; in assay [4], over 10000 nM; in assay [5] it was 1.45 nM.

With `Cn1c(=O)c2c(CC(=O)Nc3nc(-c4ccc(F)c(C(F)(F)F)c4)cs3)coc2n(C)c1=O` [Compound 58], the half-inhibitory concentration (IC50) in assay [1] was over 10000 nM; in assay [2] it was over 10000 nM; in assay [3] it was over 1000 nM; in assay [4] it was over 1000 nM; in assay [5], 11.9 nM.

`Cn1c(=O)c2c(CC(=O)Nc3nc(-c4cccc(C(F)(F)F)c4F)cs3)coc2n(C)c1=O` [Compound 59]: the concentration for half-maximal inhibition (IC50) was over 10000 nM in assay [1]; over 10000 nM in assay [2]; 2830 nM in assay [3]; over 1000 nM in assay [4]; 2.21 nM in assay [5].

Regarding `Cn1c(=O)c2c(CC(=O)Nc3nc(-c4cc(F)c(OCC(F)(F)F)c(Cl)c4)cs3)coc2n(C)c1=O` [Compound 60], the half-inhibitory concentration (IC50) in assay [1] is over 10000 nM; in assay [2], over 10000 nM; in assay [3] it was over 1000 nM; in assay [4], over 10000 nM; in assay [5], 3.54 nM.

On to `Cc1oc2c(c1CC(=O)Nc1nc(-c3cc(F)cc(C(F)(F)F)c3)cs1)c(=O)n(C)c(=O)n2C` [Compound 61], for which the IC50 in assay [1] is over 10000 nM; in assay [2], over 10000 nM; in assay [3], over 10000 nM; in assay [4], over 10000 nM; in assay [5] it was 2.93 nM.

For the molecule `Cc1oc2c(c1CC(=O)Nc1nc(-c3ccc(Cl)c(OC(F)(F)F)c3)cs1)c(=O)n(C)c(=O)n2C` [Compound 63], the IC50 in assay [1] was over 10000 nM; in assay [2], over 10000 nM; in assay [3] it was over 10000 nM; in assay [4] it was over 1000 nM; in assay [5], 9.04 nM.

`Cc1oc2c(c1CC(=O)Nc1nc(-c3ccc(F)c(C(F)(F)F)c3F)cs1)c(=O)n(C)c(=O)n2C` [Compound 64]: the IC50 is over 10000 nM in assay [1]; over 10000 nM in assay [2]; over 10000 nM in assay [3]; over 1000 nM in assay [4]; 4.52 nM in assay [5].

For the molecule `Cc1oc2c(c1CC(=O)Nc1nc(-c3ccc(C(F)(F)F)cc3F)cs1)c(=O)n(C)c(=O)n2C` [Compound 65], the concentration for half-maximal inhibition (IC50) is over 10000 nM in assay [1]; over 10000 nM in assay [2]; over 1000 nM in assay [3]; over 1000 nM in assay [4]; 6.65 nM in assay [5].

In the case of `Cc1oc2c(c1CC(=O)Nc1nc(-c3cc(F)c(OCC(C)(C)C)c(F)c3)cs1)c(=O)n(C)c(=O)n2C` [Compound 66], the 50% inhibitory concentration (IC50) in assay [1] was over 10000 nM; in assay [2] it was over 10000 nM; in assay [3], over 10000 nM; in assay [4] it was over 10000 nM; in assay [5], 3.63 nM.

For the molecule `Cc1oc2c(c1CC(=O)Nc1nc(-c3cccc(C(F)(F)F)c3F)cs1)c(=O)n(C)c(=O)n2C` [Compound 67], the IC50 in assay [1] is over 10000 nM; in assay [2], over 10000 nM; in assay [3], over 10000 nM; in assay [4], over 1000 nM; in assay [5] it was 13.6 nM.

For the molecule `Cc1oc2c(c1CC(=O)Nc1nc(-c3ccc(F)c(OC(F)(F)F)c3)cs1)c(=O)n(C)c(=O)n2C` [Compound 68], the IC50 in assay [1] is over 10000 nM; in assay [2], over 10000 nM; in assay [3], over 10000 nM; in assay [4], over 1000 nM; in assay [5], 4.84 nM.

On to `Cc1oc2c(c1CC(=O)Nc1nc(-c3ccc(F)c(C(F)(F)F)c3)cs1)c(=O)n(C)c(=O)n2C` [Compound 69], for which the concentration for half-maximal inhibition (IC50) in assay [1] was over 10000 nM; in assay [2] it was over 10000 nM; in assay [3], over 1000 nM; in assay [4], over 1000 nM; in assay [5] it was 7.1 nM.

`Cc1oc2c(c1CC(=O)Nc1nc(-c3ccc(OC(F)(F)F)c(F)c3)cs1)c(=O)n(C)c(=O)n2C` [Compound 70]: the half-inhibitory concentration (IC50) in assay [1] is over 10000 nM; in assay [2], over 10000 nM; in assay [3], over 1000 nM; in assay [4], over 1000 nM; in assay [5] it was 12.6 nM.

`Cc1oc2c(c1CC(=O)Nc1nc(-c3ccc(Cl)c(C(F)(F)F)c3)cs1)c(=O)n(C)c(=O)n2C` [Compound 71]: the 50% inhibitory concentration (IC50) in assay [1] was over 10000 nM; in assay [2], over 10000 nM; in assay [3] it was over 10000 nM; in assay [4] it was over 1000 nM; in assay [5], 3.18 nM.

Take `Cc1oc2c(c1CC(=O)Nc1nc(-c3cc(F)c(C(F)(F)F)c(F)c3)cs1)c(=O)n(C)c(=O)n2C` [Compound 72]: the IC50 is over 10000 nM in assay [1]; over 10000 nM in assay [2]; over 1000 nM in assay [3]; over 1000 nM in assay [4]; 4.16 nM in assay [5].

For the molecule `Cc1oc2c(c1CC(=O)Nc1nc(-c3ccc(OCC(F)(F)F)c(Cl)c3)cs1)c(=O)n(C)c(=O)n2C` [Compound 74], the IC50 in assay [1] was over 10000 nM; in assay [2], over 10000 nM; in assay [3], over 10000 nM; in assay [4], over 10000 nM; in assay [5] it was 5.29 nM.
